Measured values taken from patent US5179109A (priority 1988, dated 1993).
Entries after “also recorded” stand apart in the source; their conditions may differ. Like-named read-outs stand apart in the source and are kept apart here.

Assays:
[1] = test system: Swiss mice; test: Simple rotary bar test (dose at which 50% of the animals drop); assay type: in vivo; settings: for ED50: Mus musculus, sc
Experimental: In this example, the properties of compounds 1 to 5 and 8 to 11 are tested on Swiss mice.
Different doses of the compounds to be tested are administered subcutaneously to the mice and the latter are then placed in batches of 10 on a rotary bar, being separated from one another by separating disks. This bar is made from scraped wood, has a diameter of 3 cm and is moved horizontally with a uniform circular movement about its axis at a speed of 10 rpm.
Determination takes place of the ED50, which is the dose at which 50% of the animals drop, the dose being expressed in mg/kg.

[2] = test system: site of PCP; test: Affinity for the PCP site, competition with (^3 H)PCP on rat brain homogenates; assay type: binding; settings: rat brain homogenate, pH 7.7, 25° C., 1 nmole tritiated ligand
[3] = target: cerebral cholinergic muscarinic receptor; assay type: binding, rat; settings: for IC50: rat brain homogenate, read-out: ^3 HQNB IC50; for ^3 HQNB/^3 HTCP: ratio of IC50
[4] = Subcutaneous LD50 in the rat; settings: in vivo, sc
[5] = test system: cortical and hippocampal neurons; test: In vitro neuron culture survival after 2 months, count of neurons (Example 23); assay type: cell-based, rat; settings: for number of neurons which survived after 2 months culturing: single dose at start of third week, TCP 2.5 and 20, compound 9 and MK801 2.5 and 5 μmole/l, control 50 neurons/mm^2
Experimental: This example also illustrates the effect of the arylcyclohexylamines according to the invention on the in vitro neuron culture survival. As in example 21, cortical and hippocampal neuron cultures are prepared. At the start of the third culturing week, the cells are treated with a single dose of the compound to be tested and culturing is continued for two months. At the end of this period, the cells which were fixed and dyed to reveal the specific enolase of the neurons are subject to counts in order to determine the quantity of cells per surface unit.
The results obtained are given in FIG. 1, which is a histogram indicating the number of cells/mm^2 which survived after 2 months culturing.
The results are given for the control, i.e. for untreated cultures, cultures treated with 2.5 and 20 μmole/l of TCP, cultures treated by compound no. 9 at concentrations of 2.5 and 5 μmole/l and cultures treated by compound MK801 at concentrations of 2.5 and 5 μmole/l. Compound MK801, which is known to have a neuroprotection activity, is (+)-methyl-5-dihydro-10,11(5H)dibenzo(A,D) cyclohepteneimine-5,10 of formula: [drawing 38] From FIG. 1 it can be seen that the control cultures, after surviving for 2 months, on average contain 50 neurons/mm^2. The treated cultures, no matter what the compound and dose used, contain more than 500 neurons/mm^2.

[6] = test system: synaptosomal striatal (^3 H)DA capture; test: Inhibition test of the synaptosomal striatal sample (capture) of (^3 H)DA; assay type: biochemical, Wistar rats; settings: for IC50: rat striatal synaptosomes, 5 nM (^3 H)DA, 5 min at 30° C., pH 7.4, read-out: ^3 HDA IC50; for ^3 HDA/^3 H-TCP: ratio of IC50
Experimental: This test is carried out according to the method used by Vignon and Lazdunski operating in the following way. Wistar rats weighing 200 to 250 g are killed by cervical dislocation. Their brains are rapidly removed and the striae dissected on ice. The striae are then homogenized with a Teflon glass Potter homogenizer in 50 volumes of tris HCl 10 mM buffer containing 0.32M of sucrose at pH 7.4 and they are centrifuged at 1000 g for 10 min. The supernatants are further centrifuged at 10000 g for 20 min. The resulting deposits P2 containing the crude synaptosomes are used without supplementary purification.
The synaptosomes are balanced with the compound to be tested for 30 min at 30° C. in the Ringer medium (mM: 140 NaCl, 5 KCl, 2.6 CaCl2, 1.3 MgSO4, 10 tris-HCl, pH=7.4)+200 μM of pargyline. This is followed by the addition of (^3 H)DA labelled dopamine at a final concentration of 5 nM for 5 min at 30° C. and sampling is interrupted by filtration of the incubate (150 μl) on GF/B filters. The non-specific sample is measured at 4° C. in parallel incubations and is deducted from the total sample at 30° C. The IC50 is the compound concentration preventing 50% of the specific capture compared with the control in the absence of an inhibitor.

[7] = test system: Purkinje cells; test: Cerebral aging in mice, histology of the cerebellum; assay type: in vivo; settings: cerebellum and hippocampus, compared with TCP
Experimental: This example illustrates the effect of arylcyclohexylamines on cerebral aging. No matter what the cause of the cerebral aging (vascular or degenerative), it leads to a neuronal loss at the cerebral cortex, the hippocampas and to a lesser extent the cerebellum. This cellular loss can be quantified by simple histological methods and evaluated on a larger scale by means of semi-automatic image analysis methods.
In this example 6 mice aged 23 months by intraperitonealy injecting 3 of them with 5 mg/kg of TCP in the physiological solute at the 23rd, 24th and 25th months and 3 other mice were intraperitonealy injected with the physiological solute only. At the 26th month, all the mice were sacrificed by intracardial perfusion of a 5% glutaraldehyde solution, the brains were cut up with the vibratone and the sections dyed by the NISSL method.
The results obtained are given in FIGS. 2 to 5, which are sections of the brain and the cerebellum of the treated mice and the untreated control mice.

[8] = target: T1, receptor of the opiates (Rattus norvegicus, UniProt P33535); test: Competition test with ^3 H-DHM for the receptor of the opiates; assay type: binding
T1 construct: variable concentrations of the tested compound and a rat brain homogenate; from tissue; host or cells: rat brain homogenate
Experimental: In this test, a fixed concentration of ^3 H-DHM labelled morphine was incubated in the presence of variable concentrations of the tested compound and a rat brain homogenate. The concentration of the compound preventing the fixing of 50% of ^3 H-DHM (IC50) is a measure of the affinity of the compound for the receptor of the opiates. The latter also gives the results obtained with PCP and TCP, as well as the ratios H^3 DA/^3 H-TCP, ^3 HQNB/^3 H-TCP and ^3 HDHM/^3 HTCP obtained with the different tested compounds.

[9] = test system: site of TCP; test: Affinity for the TCP site, competition with (^3 H)TCP on rat brain homogenates; assay type: binding; settings: rat brain homogenate, pH 7.7, 25° C., 1 nmole tritiated ligand; read-out: ^3 HTCP IC50
[10] = test system: cortical and hippocampal neurons; test: Protection of cortical and hippocampal neuron cultures against glutamate; assay type: cell-based, rat
Experimental: (§1) This example illustrates the effect of the arylcyclohexylamines according to the invention on in vitro cultures of rat brain cells as a neuroprotector against acute attacks caused by the presence of glutamate.
(§2) Cortical and hippocampal neuron cultures were prepared from the fetuses of rats aged from 17 to 18 days. The hemispheres or hippocampi are dissected and immersed in a buffer containing EDTA (Versene) for 10 min. The tissues are then mechanically dissociated in a saline PUCK solution free from calcium and magnesium and centrifuged at 70 g for 10 min. The centrifuging deposit is resuspended in a culture medium constituted by 60% of the minimum essential Eagle medium (MEM), 25% of a saline Hank solution, 5% of human serum, 5% of calf foetus serum, 5% of embryo extract and which are complemented with 6% glucose. The cells are introduced at a density of 10^6 cells per ml into 24 Wells previously coated with polylysine D. The cultures are allowed to grow for 3 weeks, […] of the culture medium being renewed every 3 days. The test is carried out in the following way. Glutamate dissolved in 10 μl of MEM is added to the medium in order to obtain a final glutamate concentration of 5·10^-4 M. After exposure for 5 min, the medium is changed. For studying the antagonist derivatives of the glutamate, to the culture medium is added the compound to be test in 10 μl of MEM in order to obtain a final concentration of compound of 200, 20 or 0.2·10^-6 M. Five minutes later, glutamate is added to the medium and then the medium is replenished after exposure for 5 minutes. The protected and unprotected cultures are then examined and photographed at intervals between 30 min and 24 h.

[11] = test system: cortical cells; test: Protection of cortical cells in vitro against acute glutamate damage; assay type: cell-based, rat; design: key: ++: severe damage; +: partial protection; -: no damage; settings: 24 h after 5 min exposure to glutamate
Experimental: as §1, §2

[12] = test system: hippocampal cells; test: Protection of hippocampal cells in vitro against acute glutamate damage; assay type: cell-based, rat; design: key: ++: severe damage; +: partial protection; -: no damage; settings: 24 h after 5 min exposure to glutamate
Experimental: as §1, §2

[13] = Swiss mice, subcutaneous, dose at which 50% of the animals drop, read-out: ED50

T1 sequence (P33535 whole entry): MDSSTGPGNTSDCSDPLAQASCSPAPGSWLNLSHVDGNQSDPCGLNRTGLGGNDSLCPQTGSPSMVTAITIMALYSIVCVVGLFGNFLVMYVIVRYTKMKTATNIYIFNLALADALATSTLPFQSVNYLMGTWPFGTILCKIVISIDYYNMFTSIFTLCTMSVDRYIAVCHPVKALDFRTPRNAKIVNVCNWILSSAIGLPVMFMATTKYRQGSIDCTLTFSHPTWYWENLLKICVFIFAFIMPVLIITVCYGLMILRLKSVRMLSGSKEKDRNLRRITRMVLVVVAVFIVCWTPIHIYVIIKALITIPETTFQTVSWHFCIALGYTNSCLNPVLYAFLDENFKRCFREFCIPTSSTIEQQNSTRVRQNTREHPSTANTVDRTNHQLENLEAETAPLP

Row | SMILES | ED50 [1, 13] | IC50 [2] | IC50 [3] | ^3 HQNB/^3 HTCP [3] | IC50 [6] | ^3 HDA/^3 H-TCP [6] | also measured
1 | C[C@H]1CC[C@@](c2cccs2)(N2CCCC(CO)C2)CC1 (stereo partly shown) [compound 5, r-(hydroxymethyl-3-piperidino)-1-c-methyl-4 (thienyl-2)-1 cyclohexane] | 8 mg/kg | 0.38 µM | 110 µM | 289 |  |  | 
2 | OCC1CCCN(C2(c3cccs3)CCCCC2)C1 (stereo not shown) [compound 3, [(hydroxymethyl-3piperidino)-1]-1 (thienyl-2)-1 cyclohexane] | 0.68 mg/kg | 0.7 µM | 90 µM | 128 |  |  | LD50 [4]: > 60 mg/kg
3 | C[C@H]1CC[C@@](c2cccc(F)c2)(N2CCCC(CO)C2)CC1 (stereo partly shown) [compound 7, ((fluoro-3 phenyl)-1)-r-((hydroxymethyl-3 piperidino)-1)-1-c-methyl-4 cyclohexane] |  | 4.5 µM | 760 µM | 168 |  |  | 
4 | ClCC1CCCN(C2(c3cccs3)CCCCC2)C1 (stereo not shown) [compound 8, [(chloromethyl-3 piperidino)-1]-1 (thienyl-2)-1 cyclohexane] | 150 mg/kg | 0.56 µM | 870 µM | 1553 |  |  | rotary bar activity, in words ([1]; Swiss mice, subcutaneous): low activity compared with the other compounds
5 | C[C@@H]1CCCC[C@]1(c1cccs1)N1CCCCC1 (relative stereo) [compound 9, c-methyl-2-r-(piperidino-1)-1 (thienyl-2)-1 cyclohexane] | 3.5 mg/kg |  | 12 µM |  | 7.9 µM | 415 | neuron survival, comparison in words ([5]; compound 9 at 5 μmole/liter, 2 months culturing): comparable result to that of TCP at 20 μmole/l and that of MK801 at 5 μmole/l; also recorded: effectiveness equal to that of the reference compound MK801; number of neurons which survived after 2 months culturing [5]: more than 500 neurons/mm^2; cerebral aging experiment repeated in place of TCP [7]: equivalent results were obtained; IC50 ([8]; rat brain homogenate, read-out: ^3 HDHM IC50): 5 µM
6 | c1ccc(C2(N3CCCCC3)CCCCC2)cc1 [PCP, 1-(1-phenylcyclohexyl)-piperidine, reference compound] |  | 0.25 µM | 30 µM | 150 | 0.5 µM | 2.5 | IC50 [9]: 0.2 µM; ED50 [1]: 4 mg/kg; IC50 [8]: 26 µM; ^3 HDHM/^3 HTCP ([8]; ratio of IC50): 130
7 | C[C@]12N[C@H](Cc3ccccc31)c1ccccc12 [MK801, (+)-methyl-5-dihydro-10,11(5H)dibenzo(A,D) cyclohepteneimine-5,10, reference compound] |  |  |  |  |  |  | number of neurons which survived after 2 months culturing [5]: more than 500 neurons/mm^2
8 | C1=CCN(C2(c3cccs3)CCCCC2)CC1 [Compound No. 2, ((tetrahydro-1,2,5,6pyridino)-1)-1 (thienyl-2)-1 cyclohexane] | 4 mg/kg | 0.017 µM | 25 µM | 961 | 4.7 µM |  | IC50 [9]: 0.026 µM; protection of the cultures against glutamate ([10]; 0.2 μmole, 24 h after 5 min exposure to glutamate): no protection; protection of the cultures against glutamate ([10]; 2 μmole, 24 h after 5 min exposure to glutamate): only a limited protection; damage of the cultures by glutamate ([10]; 20 μmole, 24 h after 5 min exposure to glutamate): only very slightly damaged; appearance of hippocampal and cortical cell cultures ([10]; after 24 h, glutamate exposure): appear healthy in the same way as the control cells; acute swelling ([10]; glutamate exposure): less intense; necrosis ([10]; glutamate exposure): completely blocked; Treatment of cortical cells, damage ([11]; 0.2 μM): ++; Treatment of cortical cells, damage ([11]; 2 μM): +; Treatment of cortical cells, damage ([11]; 20 μM): -; Treatment of cortical cells, damage ([11]; 200 μM): -; Treatment of hippocampal cells, damage ([12]; 0.2 μM): ++; Treatment of hippocampal cells, damage ([12]; 2 μM): +; Treatment of hippocampal cells, damage ([12]; 20 μM): -; Treatment of hippocampal cells, damage ([12]; 200 μM): -
9 | O[C@H]1CCCC[C@]1(c1ccccc1)N1CCCCC1 (relative stereo) [compound 11, t-hydroxy-2 phenyl-1-r-(piperidino-1)-1 cyclohexane] | 17 mg/kg | 1.17 µM | 125 µM | 106.8 |  |  | 
10 | CC(=O)OCC1CCCN(C2(c3ccccc3)CCCCC2)C1 (stereo not shown) [compound 6, acetate of ((hydroxymethyl-3-piperidino)-1)-1 phenyl-1 cyclohexane] |  | 1.1 µM | 140 µM | 127 |  |  | 
11 | CC1CCN(C2(c3ccccc3)CCCCC2)CC1 [compound 1, ((methyl-4 piperidino)-1)-1 phenyl-1 cyclohexane] | 20 mg/kg | 0.4 µM |  |  | 5 µM | 125 | 
12 | C[C@H]1CC[C@](c2cccs2)(N2CCCCC2)CC1 [compound 10] | 19 mg/kg | 0.14 µM | 29.3 µM | 862 | 3.6 µM | 105 | IC50 [9]: 0.034 µM
